In patent US9884818B2, “Sulphamoylpyrrolamide derivatives and the use thereof as medicaments for the treatment of hepatitis B” (Janssen Sciences Ireland UC, priority 2013, dated 2018):

Key:
HBV [1] = experiment: Anti-HBV activity, HepG2.117 inducibly HBV producing cell line (Tet-off), intracellular HBV DNA by realtime PCR; assay type: cell-based; conditions: HepG2.117 cells, 3 days of treatment, intracellular HBV DNA, read-out: HepG2 117 EC50
HBV [2] = experiment: Anti-HBV activity, HepG2.2.15 stable transfected cell line, HBV DNA from secreted virions by realtime PCR; assay type: cell-based; conditions: HepG2.2.15 cells, 6 days of treatment, HBV DNA from secreted virions, read-out: HepG2 2.15 EC50
HepG2 cells = experiment: Cytotoxicity in HepG2 cells, Resazurin viability assay; conditions: read-out: HepG2 4 days CC50; HepG2 cells, incubated for 4 days, Resazurin assay
[3] = as above; conditions: human, HepG2 cells, HepG2 4 days CC50 (μM), incubated for 4 days, Resazurin assay
[4] = Hepatitis B virus, HepG2.117, 72 h
[5] = Hepatitis B virus, HepG2.2.15, 144 h

Row | Structure (SMILES) | EC50 (HBV [1]) [µM] | EC50 (HBV [2]) [µM] | CC50 (HepG2 cells) [µM] | EC50 (HBV [1]; [4]) [µM] | EC50 (HBV [2]; [5]) [µM] | CC50 at 4 days [3] [µM]
1 | CCC(C)(NS(=O)(=O)c1cc(C(=O)Nc2cc(F)c(F)c(Cl)c2)n(C)c1)C(F)(F)F (single isomer, unassigned) [Compound 165b, N-(3-chloro-4,5-difluoro-phenyl)-1-methyl-4-[[1-methyl-1-(trifluoro-methyl)propyl]sulfamoyl]pyrrole-2-carboxamide] | 0.02 | 0.12 | 4.8 | – | – | –
2 | CC(CC(F)(F)F)NS(=O)(=O)c1cc(C(=O)Nc2cc(F)c(F)c(Cl)c2)n(C)c1 (single isomer, unassigned) [Compound 169b, N-(3-Chloro-4,5-difluorophenyl)-1-methyl-4-[(3,3,3-trifluoro-1-methylpropyl)sulfamoyl]-1H-pyrrole-2-carboxamide] | 0.03 | 0.04 | 17.1 | – | – | –
3 | CC(NS(=O)(=O)c1cc(C(=O)Nc2ccc(F)c(C#N)c2)n(C)c1)C(F)F (single isomer, unassigned) [Compound 200b, N-(3-Cyano-4-fluorophenyl)-4-{[2,2-difluoro-1-methylethyl]sulfamoyl}-1-methyl-1H-pyrrole-2-carboxamide] | 0.1 | 0.09 | > 25 | – | – | –
4 | Cn1cc(S(=O)(=O)NC2CCC(F)(F)C2)cc1C(=O)Nc1cc(F)c(F)c(Cl)c1 (single isomer, unassigned) [Compound 166b, N-(3-Chloro-4,5-difluorophenyl)-4-[(3,3-difluorocyclopentyl)sulfamoyl]-1-methyl-1H-pyrrole-2-carboxamide] | 0.17 | 0.31 | 21.3 | – | – | –
5 | Cn1cc(S(=O)(=O)NC2(C(F)(F)F)CCOC2)cc1C(=O)Nc1ccc(F)c(C#N)c1 (single isomer, unassigned) [Compound 228b, N-(3-Cyano-4-fluorophenyl)-1-methyl-4-{[3-(trifluoromethyl)tetrahydrofuran-3-yl]sulfamoyl}-1H-pyrrole-2-carboxamide] | – | 0.03 | > 25 | – | – | –
6 | C[C@@H](NS(=O)(=O)c1cn(C)c(C(=O)Nc2ccc(F)c(Cl)c2Cl)c1Cl)C(F)(F)F [Compound 277, 3-chloro-N-(2,3-dichloro-4-fluoro-phenyl)-1-methyl-4-[[(1R)-2,2,2-trifluoro-1-methyl-ethyl]sulfamoyl]pyrrole-2-carboxamide] | – | – | – | 0.04 | 0.03 | > 25
7 | Cn1cc(S(=O)(=O)NC2(C(F)(F)F)CCC2)c(Cl)c1C(=O)Nc1ccc(F)c(Cl)c1 [Compound 268, 3-chloro-N-(3-chloro-4-fluoro-phenyl)-1-methyl-4-{[1-(trifluoro-methyl)cyclobutyl]sulfamoyl}-1H-pyrrole-2-carboxamide] | – | – | – | 0.006 | 0.005 | > 25
8 | Cn1cc(S(=O)(=O)NC(C)(C)C)c(Cl)c1C(=O)Nc1ccc(F)c(Cl)c1F [Compound 224, 4-(tert-Butylsulfamoyl)-3-chloro-N-(3-chloro-2,4-difluorophenyl)-1-methyl-1H-pyrrole-2-carboxamide] | – | – | – | 0.26 | 0.22 | > 25
9 | Cc1c(S(=O)(=O)N[C@H](C)C(F)(F)F)c(Cl)c(C(=O)Nc2ccc(F)c(C#N)c2)n1C [Compound 282, 3-chloro-N-(3-cyano-4-fluoro-phenyl)-1,5-dimethyl-4-[[(1R)-2,2,2-trifluoro-1-methyl-ethyl]sulfamoyl]pyrrole-2-carboxamide] | – | – | – | 0.005 | < 0.005 | > 25
10 | CC(CC(F)(F)F)NS(=O)(=O)c1cc(C(=O)Nc2ccc(F)c(C#N)c2)n(C)c1 (centres unmarked) [Compound 238, N-(3-Cyano-4-fluorophenyl)-1-methyl-4-[(3,3,3-trifluoro-1-methyl-propyl)sulfamoyl]-1H-pyrrole-2-carboxamide] | – | – | – | 0.11 | 0.1 | > 25
11 | Cc1cc(NC(=O)c2cc(S(=O)(=O)NC3(CC#N)COC3)cn2C)ccc1F [Compound 17, 4-[[3-(cyanomethyl)oxetan-3-yl]sulfamoyl]-N-(4-fluoro-3-methyl-phenyl)-1-methyl-pyrrole-2-carboxamide] | – | – | – | 0.02 | 0.03 | > 25
12 | Cc1cc(NC(=O)c2cc(S(=O)(=O)NC(C)C)cn2C)cc(F)c1F [Compound 33, N-(3,4-difluoro-5-methyl-phenyl)-4-(isopropylsulfamoyl)-1-methyl-pyrrole-2-carboxamide] | – | – | – | 0.04 | 0.03 | > 25
13 | CCC(C)(C)NS(=O)(=O)c1cc(C(=O)Nc2cc(F)c(F)c(Cl)c2)n(C)c1 [Compound 66, N-(3-chloro-4,5-difluoro-phenyl)-4-(1,1-dimethylpropylsulfamoyl)-1-methyl-pyrrole-2-carboxamide] | – | – | – | 0.03 | 0.03 | > 25
14 | Cc1c(S(=O)(=O)NC2(C)COC2)cn(C)c1C(=O)Nc1ccc(F)c(C#N)c1 [Compound 152, N-3-Cyano-4-fluoromethyl-4-[(3-methyloxetan-3-yl)sulfamoyl]-1H-pyrrole-2-carboxamide] | – | – | – | 0.08 | 0.24 | > 25
15 | Cn1cc(S(=O)(=O)NC(C)(C)C)cc1C(=O)Nc1ccc(F)c(C(C)(F)F)c1 [Compound 162, 4-(tert-Butylsulfamoyl)-N-[3-(1,1-difluoroethyl)-4-fluorophenyl]-1-methyl-1H-pyrrole-2-carboxamide] | – | – | – | 0.89 | > 1 | > 25
16 | C[C@@H](NS(=O)(=O)c1cn(C)c(C(=O)Nc2cccc(C#N)c2F)c1F)C(F)(F)F [Compound 182, N-(3-Cyano-2-fluorophenyl)-3-fluoro-1-methyl-4-{[(1R)-2,2,2-trifluoro-1-methylethyl]sulfamoyl}-1H-pyrrole-2-carboxamide] | – | – | – | 0.03 | 0.01 | > 25
17 | C[C@@H](NS(=O)(=O)c1cc(C(=O)Nc2cccc(C#N)c2F)n(C)c1)C(F)(F)F [Compound 160, N-(3-Cyano-2-fluorophenyl)-1-methyl-4-{[(1R)-2,2,2-trifluoro-1-methylethyl]sulfamoyl}-1H-pyrrole-2-carboxamide] | – | – | – | 0.13 | 0.16 | > 25
18 | Cn1cc(S(=O)(=O)NC(C)(C)C)c(Cl)c1C(=O)Nc1ccc(F)c(Cl)c1 [Compound 220, 4-(tert-Butylsulfamoyl)-3-chloro-N-(3-chloro-4-fluorophenyl)-1-methyl-1H-pyrrole-2-carboxamide] | – | – | – | 0.04 | 0.1 | > 25
19 | Cc1cc(NC(=O)c2cc(S(=O)(=O)N[C@H](C)C(F)(F)F)cn2C)ccc1F [Compound 9, N-(4-fluoro-3-methyl-phenyl)-1-methyl-4-[[(1R)-2,2,2-trifluoro-1-methyl-ethyl]sulfamoyl]pyrrole-2-carboxamide] | – | – | – | 0.03 | 0.01 | > 25
20 | C[C@H](CO)NS(=O)(=O)c1cc(C(=O)Nc2ccc(F)c(C(F)F)c2)n(C)c1 [Compound 40, N-[3-(difluoromethyl)-4-fluoro-phenyl]-4-[[(1R)-2-hydroxy-1-methyl-ethyl]sulfamoyl]-1-methyl-pyrrole-2-carboxamide] | – | – | – | 0.12 | 0.2 | > 25
21 | Cn1cc(S(=O)(=O)NC2(C)COC2)cc1C(=O)Nc1cc(F)c(F)c(Cl)c1 [Compound 59, N-(3-chloro-4,5-difluoro-phenyl)-1-methyl-4-[(3-methyloxetan-3-yl)-sulfamoyl]pyrrole-2-carboxamide] | – | – | – | 0.03 | 0.03 | > 25
22 | CC(CC(F)(F)F)NS(=O)(=O)c1cc(C(=O)Nc2ccc(F)c(Cl)c2F)n(C)c1 (centres unmarked) [Compound 260, N-(3-chloro-2,4-difluoro-phenyl)-1-methyl-4-[(3,3,3-trifluoro-1-methylpropyl)sulfamoyl]-1H-pyrrole-2-carboxamide] | – | – | – | 0.09 | 0.07 | > 25
23 | Cn1cc(S(=O)(=O)NC2(C)COC2)cc1C(=O)Nc1ccc(F)c(Br)c1 [Compound 81] | – | – | – | 0.05 | 0.01 | > 25
24 | Cc1cc(NC(=O)c2cc(S(=O)(=O)NC3(C)COC3)c(C)n2C)ccc1F [Compound 89, N-(4-Fluoro-3-methylphenyl)-1,5-dimethyl-4-[(3-methyloxetan-3-yl)sulfamoyl]-1H-pyrrole-2-carboxamide] | – | – | – | 0.02 | 0.02 | > 25
25 | Cn1cc(S(=O)(=O)NC(C)(C)C)cc1C(=O)Nc1cc(F)c(F)c(F)c1 [Compound 68, 4-(tert-butylsulfamoyl)-1-methyl-N-(3,4,5-trifluorophenyl)pyrrole-2-carboxamide] | – | – | – | 0.07 | 0.07 | > 25
26 | CC(C)NS(=O)(=O)c1cc(C(=O)Nc2cccc(Cl)c2F)n(C)c1 [Compound 173, N-(3-Chloro-2-fluorophenyl)-1-methyl-4-[(1-methylethyl)sulfamoyl]-1H-pyrrole-2-carboxamide] | – | – | – | 0.32 | 0.21 | > 25
27 | Cc1cc(NC(=O)c2cc(S(=O)(=O)NC3(C)COC3)cn2C)cc(C(F)(F)F)c1F [Compound 79, N-[4-Fluoro-3-methyl-5-(trifluoromethyl)phenyl]-1-methyl-4-[(3-methyloxetan-3-yl)sulfamoyl]-1H-pyrrole-2-carboxamide] | – | – | – | 0.46 | 0.53 | > 25
